{"source": "patent US5352815A", "about": "“Agent for suppression and interception of mailard reaction” (Asai Germanium Research Institute Co., Ltd., priority 1992, dated 1994)", "key": {"[1]": {"experiment": "Example 3: decomposition of Amadori rearrangement product formed from ribose and alginine (HPLC)", "type": "biochemical", "details": "40 mM solution mixed 1:1; 37° C., 24 hours, pH 7.4 (FIG. 6)", "description": "20 mg of ribose, 20 mg of alginine and 10 ml of methanol were reacted under refluxing, in a hot bath of 60°-70° C. 10-15 minutes later, 0.1-0.3 ml of acetic acid was added and the reaction was continued for a further 5-10 minutes. Then, the reaction mixture was concentrated under reduced pressure. During the concentration, a small amount of water was added to remove acetic acid. The concentrate was dissolved in 1 ml of water and the solution was subjected to HPLC to collect an Amadori rearrangement product. The product was freeze-dried.\nThe freeze-dried product of the Amadori rearrangement product was suspended in 4 ml of a sodium phosphate buffer solution (pH 7.4, 0.1M). The suspension was mixed with a sodium phosphate buffer solution containing or not containing 40 mM of the organogermanium compound (1-1), at a 1:1 ratio. The mixture was incubated at 37° C. for 24 hours. Sampling of 0.1 ml was conducted with the lapse of time for immediate analysis by HPLC. When immediate analysis was impossible, the sample was freeze-storedat -20° C."}, "[2]": {"experiment": "Example 5: general observations in Streptozocin-diabetic rats (blood sugar, body weight, water, food)", "type": "in vivo, Sprague-Dawley female rats", "details": "100 mg per kg, oral in drinking water; 4, 8 and 14 weeks; vs control group", "description": "(§1) Streptozocin was intravenously injected into Sprague-Dawley female rats (total 21 rats each weighing 240-270 g) in an amount of 65 mg per kg of body weight to cause diabetes. Then, the rats were divided into two groups, i.e. a control group and an administered group. An organogermanium compound (1-1) was put into drinking water and orally administered to the administered group at night in an amount of 100 mg per kg of body weight.\nIncidentally, during the test period, i.e. 4, 8 and 14 weeks after the administration of the organogermanium compound (1-1), there was no difference in blood sugar in hungry state, body weight, amount of water taken and amount of food taken, between the two groups."}, "[3]": {"tested_on": "rats", "experiment": "Acute oral toxicity in rats (LD50)", "type": "in vivo", "details": "oral administration", "description": "(§2) The organogermanium compound (1) used in the present agent has very low toxicity. In the case of oral administration of the compound (1-1), the LD50 is 6 g or more for mice and 10 g or more for rats."}, "[4]": {"tested_on": "tail tendon collagen", "experiment": "Example 5: fluorescence of tail tendon collagen in Streptozocin-diabetic rats", "type": "in vivo, Sprague-Dawley female rats", "details": "100 mg per kg, oral in drinking water; 14 weeks", "description": "as §1\n(§3) 14 weeks after the administration of the organogermanium compound (1-1), all the rats were killed to collect the skin of abdomen and the tendon of tail. Collagen was extracted from each skin and each tendon and treated with collagenase for solubilization. Each of the solubilized collagens was measured for fluorescence at an excitation wavelength of 370 nm and an absorption wave length of 440 nm. At the same time, hydroxyproline was measured by HPLC; a collagen amount was calculated; and the adjustment of fluorescent intensity was made using the value."}, "[5]": {"tested_on": "abdomen skin collagen", "experiment": "Example 5: fluorescence of abdomen skin collagen in Streptozocin-diabetic rats", "type": "in vivo, Sprague-Dawley female rats", "details": "100 mg per kg, oral in drinking water; 14 weeks", "description": "as §1, §3"}, "[6]": {"experiment": "Example 1: Mailard reaction of Nα-t-Boc-lysine (model protein) with glucose; AGE formation (absorbance at 420 nm) and Nα-t-Boc-lysine consumption (HPLC)", "type": "biochemical", "details": "40° C.", "description": "The organogermanium compound (1-1) was added to a phosphate buffer solution (50 mM, pH 7.4) containing 50 mM of Nα-t-butoxycarbonyl-L-lysine (hereinafter abbreviated to Nα-t-Boc-lysine) as a model protein and 1M of glucose, so that the final concentration became 0, 1, 5 or 10 mM. Then, incubation was conducted at 40° C. for 15 days, after which the formation of AGE was measured by browning degree (absorbance at 420 nm) and the amount of Nα-t-Boc-lysine consumed was measured by high-performance liquid chromatography (hereinafter abbreviated to HPLC) to examine the effect of the organogermanium compound (1-1) added."}, "[7]": {"tested_on": "mice", "experiment": "Acute oral toxicity in mice (LD50)", "type": "in vivo", "details": "oral administration", "description": "as §2"}, "[8]": {"tested_on": "Fructosamine in serum", "experiment": "Example 6: serum Fructosamine in diabetes patients", "type": "in vivo, human (diabetes patients)", "details": "750 mg/day for 2 months; 20 diabetes patients (FIG. 11)", "description": "An organogermanium compound (1-1) was administered to 20 diabetes patients (they were diagnosed as diabetes by a 75-g grape sugar loading test) at a dose of 750 mg/day for 2 months. Fructosamine content in serum of each patient was measured before and after the administration.\nFructosamine content in serum was measured by an ordinary method, i.e. by adding a test sample or a reference (a standard Amadori rearrangement product) to a NTB solution, subjecting the mixture to incubation at 37° C., and measuring the developed color."}, "[9]": {"experiment": "Example 2: AGE formation from F-lysine (model glycosylated protein; absorbance at 420 nm) and F-lysine decomposition (HPLC)", "type": "biochemical", "description": "The organogermanium compound (1-1) was added to a phosphate buffer solution containing 10 mM of Nα-t-butoxycarbonyl-Nε-fructose-L-lysine(hereinafter abbreviated to F-lysine) as a model glycosylated protein, so that the final concentration became 0, 1, 5, 10 or 50 mM. Then, incubation was conducted at 40° C. for 15 days, after which the formation of AGE was measured by browning degree (absorbance at 420 nm) and the amount of F-lysine decomposed was measured by HPLC to examine the effect of the organogermanium compound (1-1) added."}, "[10]": {"tested_on": "proteins in plasma", "experiment": "Example 4: glycation of plasma proteins in Streptozocin-diabetic rats", "type": "in vivo, Sprague-Dawley female rats", "details": "100 mg per kg, oral in drinking water", "description": "as §1\n4, 8 and 14 weeks after the administration of the organogermanium compound (1-1), blood sampling was made from all the rats of the two groups in hungry state. Each blood taken was measured for blood sugar, glucohemoglobin (hereinafter abbreviated to GHb), glycated albumin (hereinafter abbreviated to GA) and Fructosamine (hereinafter abbreviated to Fru). GHb was measured by affinity chromatography using a mini column, and GA was measured by HPLC using two different columns. The body weight, amount of water taken and amount of food taken, of each rat were also recorded simultaneously."}}, "data": [{"smiles": "O=C(O)C[CH2][Ge](=[O])[O][Ge](=[O])[CH2]CC(=O)O", "note": "[compound (1-1)]", "values": [{"measurement": "alginine increase and unidentified substance peak increase", "setting": "[1]", "value": "substantially seen neither alginine increase nor unidentified substance peak increase"}, {"measurement": "decrease of the Amadori rearrangement product", "setting": "[1]", "value": "very mild"}, {"measurement": "blood sugar in hungry state", "setting": "[2]", "value": "no difference"}, {"measurement": "body weight, amount of water taken and amount of food taken", "setting": "[2]", "value": "no difference"}, {"measurement": "LD50", "setting": "[3]", "value": "≥ 10", "unit": "g"}, {"measurement": "fluorescence of tendon collagen vs control group", "setting": "[4]", "value": "significantly lower"}, {"measurement": "fluorescence of skin collagen vs control group", "setting": "[5]", "value": "significantly lower"}, {"measurement": "suppression of the formation of AGE, concentration dependence", "setting": "[6]; 0, 1, 5 or 10 mM, 15 days (FIG. 1)", "value": "suppressed the formation of AGE dependently upon the concentration"}, {"measurement": "consumption of Nα-t-Boc-lysine (suppressed to)", "setting": "[6]; 10 mM, 15 days, HPLC (FIG. 2)", "value": "about 10%"}, {"measurement": "suppression of the formation of AGE", "setting": "[6]; 5-10 mM, 15 days, pH 7.4, absorbance at 420 nm (FIG. 1)", "value": "suppressed the formation substantially completely"}, {"measurement": "LD50", "setting": "[7]", "value": "≥ 6", "unit": "g"}, {"measurement": "Fructosamine content in serum after vs before administration", "setting": "[8]", "value": "lower after the administration"}, {"measurement": "consumption of F-lysine (suppressed to)", "setting": "[9]; 50 mM, 40° C., 15 days, HPLC (FIG. 4)", "value": "about 20%"}, {"measurement": "consumption of F-lysine", "setting": "[9]; 5-50 mM, 40° C., 15 days, HPLC (FIG. 4)", "value": "suppressed the consumption of F-lysine"}, {"measurement": "suppression of the formation of AGE", "setting": "[9]; 5-50 mM, 40° C., 15 days, absorbance at 420 nm (FIG. 3)", "value": "suppressed the formation of AGE substantially completely"}, {"measurement": "Fru (Fructosamine) vs control group", "setting": "[10]; 8 weeks (FIG. 8)", "value": "significantly lower in the administered group"}, {"measurement": "GA (glycated albumin) vs control group", "setting": "[10]; 14 weeks", "value": "significantly lower in the administered group"}, {"measurement": "Fru (Fructosamine) difference vs control group", "setting": "[10]; 14 weeks, compared with 8 weeks", "value": "the difference was more significant in 14 weeks"}, {"measurement": "body weight, amount of water taken and amount of food taken", "setting": "[10]; test period, vs control group", "value": "no difference"}, {"measurement": "GHb (glucohemoglobin)", "setting": "[10]; vs control group", "value": "lower in the administered group"}, {"measurement": "blood sugar in hungry state", "setting": "[10]; vs control group", "value": "no difference"}]}, {"smiles": "N=C(N)NN", "note": "[aminoguanidine, reference compound]", "values": [{"measurement": "effect in the test of Example 2 (AGE formation and F-lysine consumption)", "setting": "[9]; compared with compound (1-1), used in its place", "value": "substantially no effect"}]}]}
